Experiments:
IL-1β, IL-6 and TNF-α = assay: Inflammatory cytokine secretion by ELISA in LPS-stimulated macrophages; assay type: cell-based; details: macrophages pretreated 1 hr with 15 µm, then 500 ng/ml LPS for 24 hrs, Figure 5
Protocol: (§1) To evaluate the ability of the synergistic composition of the invention to inhibit the NF-kβ activity in macrophages of rats, we used the DNA-binding activity assay of NF-kβ p65 by ELISA kit for TransAM p65 transcription factor (Active Motif, Carlsbad, CA). The cells were stimulated with 500 ng/ml of LPS in the presence and absence of 15 µm of CAP, 15 µm of ASX or a 15 µm combination of CAP + ASX, for 12 hours, according to the invention. Then, the DNA-binding activity of NF-kβ p65 was determined. 12 hours thereafter LPS stimulation markedly promoted the DNA-binding activity of NF-kβ p65 and the expression of proinflammatory cytokines IL-1β, IL-6, and TNF-α. […] Consistently, similar effects were shown in terms of cytokine expression (Figure 5). An immortalized macrophage cell line was used. The cells were pretreated or not for 1 hr with 15 µm of CAP, 15 µm of ASX or 15 µm of CAP+ASX, and then exposed to 500 ng/ml of LPS for another 24 hrs. IL-1b, IL-6 and TNF-a were detected by ELISA kit purchased from Abcam, Cambridge, (MA) USA. The data are expressed as mean ±SEM, n = 4; *p < 0.001 vs. LPS, **p < 0.001 vs. CAP or ASX alone.

NF-kβ p65 = NF-kβ p65 DNA-binding activity, TransAM p65 ELISA kit, in LPS-stimulated macrophages; assay type: cell-based, rats; details: 500 ng/ml LPS, 15 µm, 12 hours, Fig. 4
Protocol: as §1

Nrf2 = Nrf2 protein expression in nuclear extracts by Western blot; assay type: cell-based; details: cultured human fibroblasts, final concentration 15 µM, 1 hr up to 12 hrs, Figure 3
Protocol: The cultured human fibroblasts were exposed to CAP, ASX or to a combination of the two compounds at the final concentration of 15 µM to evaluate the Nrf2 protein expression over time. […] The […] were washed twice with PBS 1X. The cells were then harvested in 1 ml of 1X PBS and centrifuged at 3000 rpm for 3 min at 4 °C. The cell pellet was carefully resuspended in […] of cold buffer containing 10 mM of HEPES (pH 7.9), 10 mM of KCl, 0.1 mM of EDTA, 0.1 mM of EGTA, 1 µM of DTT, and cocktail complete with protease inhibitors (Roche, Mannheim, Germany). The pellet was then incubated on ice for 15 min to allow the cells to swell. After this time, 15 µl of 10% NP-40 were added and the tube was mixed with vortex for 10 s. The homogenate was then centrifuged at 3000 rpm for 3 min at 4 °C and the nuclear pellet was resuspended in 30 µl of cold buffer consisting of 20 mM of HEPES (pH 7.9), 0.4 M of NaCl, 1 mM of EDTA, 1 mM of EGTA, 1 µM of DTT and protease inhibitors. The pellet was then incubated on ice for 15 min and vortexed for 10 - 15 s every 2 min. The nuclear extract was finally centrifuged at 13,000 rpm for 5 min at 4 °C. The supernatant containing the nuclear proteins was broken down by SDS-polyacrylamide gel and subjected to immunoblot analysis using anti-Nrf2 (1:500 dilution) and anti-Sp1 (1:500 dilution) antibodies.

HO-1 = HO-1 mRNA expression by quantitative real-time PCR in cultured human fibroblasts; assay type: cell-based; details: human immortalized ATCC fibroblasts, peak at 15 µM
Protocol: The human immortalized ATCC fibroblasts were exposed for 6 hrs to different concentrations of CAP, ASX, or of a combination of the two compounds (5, 10, 15, and 30 µM). […] ASX causes a dose-dependent increase in HO-1 mRNA, measured relative to the non-inducible HO-2 paralog gene, which peaks (approximately 6-fold) at 15 µM) and subsequently decreases to 30 µM. […] To confirm that the HO-1 gene expression measured at the mRNA level corresponded to an equivalent increase in the heme oxygenase activity, this activity was measured at the same doses of CAP and ASX 6 and 24 hours after administration. […] The results highlight the synergistic activity of CAP and ASX in the ability to activate HO-1 gene expression. In order to determine the best ratio between the two compounds we evaluated using the same experimental model, different proportion of the two compounds at the final concentration of 15 µM (CAP/ASX 1:2, 1:1, 2:1).

SMILES	LPS-stimulated cytokine secretion (IL-1β, IL-6 and TNF-α) (IL-1β, IL-6 and TNF-α)	DNA-binding activity of NF-kβ p65 (NF-kβ p65)	Nrf2 protein expression in the nuclear extracts (Nrf2)	increase in HO-1 mRNA, measured relative to the non-inducible HO-2 paralog gene (HO-1; 6 hrs exposure)	HO-1 gene expression (HO-1 mRNA), result in words (HO-1; 6 hrs, 5, 10, 15 and 30 µM)
CC1=C(/C=C/C(C)=C/C=C/C(C)=C/C=C/C=C(C)/C=C/C=C(C)/C=C/C2=C(C)C(=O)C(O)CC2(C)C)C(C)(C)CC(O)C1=O (stereo not drawn) [ASX, 3,3'-dihydroxy-β-carotene-4,4'-dion]	significantly reduced	lower DNA-binding activity	significantly increased	approximately 6 fold	
COc1cc(CNC(=O)CCCC/C=C/C(C)C)ccc1O [CAP, (E)-N-(4-hydroxy-3-methoxybenzyl) -8-methylnon-6-enamide]	significantly reduced	lower DNA-binding activity	lower increase		slightly less active
